Results published in ChEMBL document CHEMBL1759953, “Antitumor agents 287. Substituted 4-amino-2H-pyran-2-one (APO) analogs reveal a new scaffold from neo-tanshinlactone with in vitro anticancer activity” (2011).

How the values were obtained:
Type in all cases: functional
[1] = Cytotoxicity against human KBVIN cells after 72 hrs by MTT assay; settings: read-out: ED50 (the source's name)
SK-BR-3 = test: Cytotoxicity against human SKBR3 cells after 72 hrs by MTT assay; settings: SK-BR-3, 72 h, read-out: ED50 (the source's name)
KB = test: Cytotoxicity against human KB cells after 72 hrs by MTT assay; settings: read-out: ED50 (the source's name)
DU-145 = test: Cytotoxicity against human DU145 cells after 72 hrs by MTT assay; settings: DU-145, 72 h, read-out: ED50 (the source's name)
A549 = test: Cytotoxicity against human A549 cells after 72 hrs by MTT assay; settings: A549, 72 h, read-out: ED50 (the source's name)

| Compound | EC50 [1] [nM] | EC50 (SK-BR-3) [nM] | EC50 (KB) [nM] | EC50 (DU-145) [nM] | EC50 (A549) [nM] |
| --- | --- | --- | --- | --- | --- |
| COc1ccc(Nc2cc(C3CCCC3)oc(=O)c2)cc1 | 4980 | 4730 | 8380 | 5420 | 5420 |
| COc1ccccc1Nc1cc(-c2ccccc2)oc(=O)c1 | 490 | 540 | 350 | 370 | – |
| O=c1cc(NC2CCCCC2)cc(-c2ccccc2)o1 | 9150 | 10900 | 16000 | 7470 | 9690 |
| COc1ccc(Nc2cc(-c3ccc4ccccc4c3)oc(=O)c2)cc1 | 130 | 130 | 180 | 150 | 150 |
| O=c1cc(Nc2ccccc2)cc(-c2ccccc2)o1 | 150 | 130 | 130 | 98 | 120 |
| O=c1cc(N2CCCCC2)cc(-c2ccccc2)o1 | > 30000 | > 30000 | > 30000 | > 30000 | > 30000 |
| COc1cccc(Nc2cc(-c3ccccc3)oc(=O)c2)c1 | 550 | 740 | 490 | 660 | 630 |
| COc1ccc(Nc2cc(Cc3ccccc3)oc(=O)c2)cc1 | 1300 | 1340 | – | 1600 | 1620 |
| CCCCCc1cc(Nc2ccc(OC)cc2)cc(=O)o1 | 4840 | 4930 | 10100 | 5940 | 4420 |
| Nc1cc(=O)oc2c1ccc1ccccc12 | 130 | 130 | 170 | 110 | 110 |
| O=c1cc(NC2CC2)cc(-c2ccccc2)o1 | > 30000 | > 30000 | > 30000 | > 30000 | > 30000 |
| O=c1cc(Nc2ccc(Br)cc2)cc(-c2ccccc2)o1 | 240 | 400 | 320 | 340 | 310 |
| Cc1ccc(Nc2cc(-c3ccccc3)oc(=O)c2)cc1 | 59 | 90 | 64 | 73 | 67 |
| COc1ccc(Nc2cc(C)oc(=O)c2)cc1 | > 30000 | > 30000 | > 30000 | > 30000 | > 30000 |
| COc1ccc(Nc2cc(-c3ccco3)oc(=O)c2)cc1 | 1460 | 1760 | 2660 | 1950 | 1910 |
| COc1ccc(Nc2cc(-c3ccccc3)oc(=O)c2)cc1 | 98 | 79 | 160 | 120 | 93 |
| COc1ccc(Nc2cc(C3CCCCC3)oc(=O)c2)cc1 | 4390 | 5290 | 8320 | 8610 | 4620 |
| O=c1cc(NC2CCCCC2)cc(/C=C/c2ccccc2)o1 | 1240 | 1530 | 2020 | 1230 | 1250 |
| COc1ccc(Nc2cc(C(C)C)oc(=O)c2)cc1 | > 30000 | > 30000 | > 30000 | > 30000 | > 30000 |
| COc1ccc(Nc2cc(/C=C/c3ccccc3)oc(=O)c2)cc1 | 100 | 83 | 150 | 110 | 110 |
